Results: article PMC5620571, “Pharmacokinetic Analysis of an Oral Multicomponent Joint Dietary Supplement (Phycox®) in Dogs” (Pharmaceutics, 2017)
“Also recorded” adds a separate entry of the source. Structures can show the parent of a compound that is named as a salt. Where two headings read alike, the source gives them in different places.

Experiments:
[1] = Single-dose oral pharmacokinetic study of one Phycox soft chew in dogs (serum, LC-MS/MS, non-compartmental analysis); assay type: in vivo, dog (female Beagle); conditions: for serum concentration of polyphenol (aglycone or glucuronidated metabolite): single PO Phycox soft chew (36.1 μg ±hesperetin, 0.554 μg trans-resveratrol, 2.88 μg ±naringenin), serum 0-24 h; for half-life: po, 450 mg
Description: The animal research protocol used in this study was reviewed and approved by the Institutional Animal Care and Use Committee at Washington State University (protocol #04224-011, approved 21 December 2014). Four commercially available purpose-bred intact female research Beagles from an Association for Assessment and Accreditation of Laboratory Animal Care (AALAC) certified source were used for the study. All dogs were 2 years of age at the onset of the study with a weight of 9.25 ± 0.81 kg (mean ± SD; range 8.4–10.2 kg). Animals were housed in AALAC approved facilities for animal research for 80 days acclimating to their environment prior to the initiation of the study. All dogs were fed a standard canine formulation (Proactive Health™ Adult Minichunks, IAMS, Mason, OH, USA) ration twice daily and housed in a temperature and humidity controlled room; 21 °C and 30%, respectively, while under 12 h light cycle conditions. The dogs underwent daily examinations and weekly body weight assessments. All animals were also given daily enrichment activities before, during, and after the study. At study termination all animals were transferred to an unrelated study. Dogs were fasted 12 h prior to the study but provided free access to water. Each subject was administered a single Phycox® soft chew and a series of blood samples (3 mL) were collected at 0, 1, 2, 4, 6, 8, 12 and 24 h post-dose via saphenous or cephalic vein depending on the temperament of the animals. Animals were fed after 2 h post-dose. Following centrifugation of the blood samples, serum was removed and stored at −80 °C until analyzed. One hundred microliters of serum from each PK sample was placed into a microcentrifuge tube. To all samples, except 0 h, 40 μL of 0.1 μg/mL internal standard stock solution (caffeine) was added along with 1.0 mL of cold acetonitrile (−20 °C) to precipitate proteins. The samples were vortexed and centrifuged at 20,160× g for 5 min. […] The residues were reconstituted with 50 μL of starting mobile phase (0.05% aqueous formic acid), vortexed and centrifuged at 20,160× g for 5 min. The supernatants were transferred to 30 kDa centrifugal filter tubes and centrifuged for 30 min at 9000× g. The filtrate was transferred to HPLC vials and 5 μL were injected into the LC-MS/MS system. The PK serum samples were separated into two sets of microcentrifuge tubes (total and aglycone) with 100 μL of serum in each. To the total samples, 20 μL β-glucuronidase (500 U/mL in 6.8 pH phosphate buffer) was added and incubated for 2 h at 37 °C [28]. To all samples except 0 h, 20 μL of 10 μg/mL internal standard stock solution (±liquiritigenin) was added along with 1.0 mL of cold acetonitrile (−20 °C) to precipitate proteins. […] The residues were reconstituted with 50 μL of mobile phase (50% aqueous methanol with 0.1% formic acid), vortexed and centrifuged at 20,160× g for 5 min. The supernatants were transferred to 30 kDa centrifugal filter tubes and centrifuged for 30 min at 9000× g. The filtrate was transferred to HPLC vials and 5 μL were injected into the LC-MS/MS system. PK samples were analyzed using Phoenix WinNonlin software (ver. 6.3; Certara, St. Louis, MO, USA) to derive the pharmacokinetic parameters for each individual dog and expressed as mean ± SEM. A non-compartmental analysis was used to calculate the PK parameters including area under the curve (AUC0–∞), the peak serum concentration (Cmax), time to reach peak serum concentration (Tmax), the apparent volume of distribution (Vd/F), the elimination half-life (t1/2), and the apparent clearance (CL/F). The elimination rate constant (KE), was estimated by log-linear regression of the serum concentrations. The AUC0–∞ was calculated using the long-linear trapezoidal rule for data from time of dosing to the last measured concentration plus the quotient of the last measured concentration divided by KE/2.303. The concentration time points of the animals were subjected to non-compartmental modeling.

[2] = Oral pharmacokinetics of glucosamine HCl in Beagle dogs (Adebowale et al.); assay type: in vivo; conditions: longer than in this study (Phycox soft chew, 450 mg)
Description: Two previous studies have evaluated the oral pharmacokinetics of glucosamine HCl in Beagle dogs. Adebowale et al. administered 1500–2000 mg of glucosamine HCl to eight dogs and used non-compartmental modeling to derive PK parameters. […] The serum-concentration time curve reported in Adebowale et al. was similar in shape to the curve reported in this study but the half-lives were reported to be between 1.52–2.4 h, which is […] than the half-live reported in this study. […] The method employed by the study utilized a validated HPLC method with a limit of quantification of 1.25 μg/mL and involved pre-column derivatization. The amount of glucosamine administered in the present study was 3.3 to 4.4 less than those administered in the study by Adebowale et al. but the method employed in this study was 250 times more sensitive allowing for detection of much smaller concentrations of glucosamine. Various LC-MS-MS assays are validated in the literature across various fluids and species. […] The second report of glucosamine HCl PK in dogs administered 1000 mg of glucosamine HCl to four male dogs using two commercially available chewable tablet formulations. […] The method employed by the study used a modified HPLC method with a limit of quantification of 0.05 μg/mL (10 fold higher limit of quantitation than the method presented in this study) and involved pre-column derivatization. […]

[3] = design: method as in PMID 12214321; conditions: cited from earlier work
[4] = design: method as in PMID 26205697; conditions: cited from earlier work
[5] = design: method as in PMID 19647388; conditions: Beagle dogs; cited from earlier work
[6] = female, Beagle, dog, glucosamine HCl 450 mg in one Phycox soft chew PO, fasted dogs, serum, n = 4, mean ± SEM
[7] = 1000 mg glucosamine HCl, four male dogs, two commercially available chewable tablet formulations

| half-life ([1]; female, Beagle, dog, serum, glucosamine HCl 450 mg in one Phycox soft chew PO, dogs, serum, read-out: apparent t1/2) [min] | half-life ([1]; female, Beagle, dog, serum, glucosamine HCl 450 mg in one Phycox soft chew PO, fasted dogs, serum, n = 4, mean ± SEM, read-out: t1/2 (converted)) [min] | AUC(0-inf) [1, 6] [ng·h/mL] | CL/F [1, 6] [mL/min/kg] | Cmax [1, 6] [ng/mL] | Tmax [1, 6] [min] | Vd/F [1, 6] [L/kg] | time post-dose up to which glucosamine was detected in serum ([1]; single PO Phycox soft chew, dogs, samples collected for 24 h, LOQ 5 ng/mL) | half-life of Adebowale et al. relative to the half-life of this study [2] | SMILES | serum concentration of polyphenol (aglycone or glucuronidated metabolite) ([1]; dogs, LOQ 5 ng/mL) | serum concentration of polyphenol (aglycone or glucuronidated metabolite) ([1]; dogs, LOQ 5 ng/mL, listed as ±Hesperetin) | half-lives ([3]; 1500–2000 mg glucosamine HCl oral, eight Beagle dogs) [h] | detection of glucosamine ([3]; after 4 h post-dose, HPLC, LOQ 1.25 μg/mL) | Cmax [4, 7] [ng/mL] | Tmax [4, 7] [min] | detection of glucosamine ([4]; at 12 h post-dose, HPLC, LOQ 0.05 μg/mL) | absorption of glucosamine co-administered with chitosan compared to glucosamine alone [5] |
| --- | --- | --- | --- | --- | --- | --- | --- | --- | --- | --- | --- | --- | --- | --- | --- | --- | --- |
| – | – | – | – | – | – | – | – | – | COc1ccc(C2CC(=O)c3c(O)cc(O)cc3O2)cc1O (racemic) [±hesperetin] | no compounds were detected at quantifiable concentrations | not detected at quantifiable concentrations | – | – | – | – | – | – |
| – | – | – | – | – | – | – | – | – | Oc1ccc(/C=C/c2cc(O)cc(O)c2)cc1 [trans-resveratrol] | not detected at quantifiable concentrations; also recorded: no compounds were detected at quantifiable concentrations | – | – | – | – | – | – | – |
| ~35 | 35 ± 2.04 | 20400 ± 2340 | 42.7 | 9690 ± 1140 | 120 | 2.1 ± 0.254 | up to 8 h | 3–5 times | N[C@H]1C(O)O[C@H](CO)[C@@H](O)[C@@H]1O (stereo partly drawn) [glucosamine, glucosamine hydrochloride] | – | – | 1.52 to 2.4 | not able to detect | 1800 to 2600 | 252 to 300 | not able to detect | increased |
